The values below come from EP0023083A1, “Oxodiazole derivatives, processes for their production and pharmaceutical composition containing them” (BEECHAM GROUP PLC, priority 1979, dated 1981).

In this assay the test system is 5-hydroxy tryptamine induced bronchoconstriction. The experiment in a line: Bronchodilator activity: inhibition of 5-hydroxy tryptamine induced bronchoconstriction (Konzett-Rossler preparation). The conditions noted are these: Cavia porcellus, iv; anaesthetised, artificially respired guinea pig. The assay is classed as in vivo. How it is done:
The compounds were examined for their ability to inhibit 5-hydroxy tryptamine induced bronchoconstriction in the anaethetised, artifically respired guinea pig (Konzett-Rossler preparation). The compounds were administered intravenously.

In the case of `CCCCCCC(C)(O)CCN1C(=O)N(C)C(=O)C1CCCCCCCC(C)O` (centres unmarked) [Compound 2], the 50% effect level (ED50) was put at a dose of 5.5 µg/kg.

`CCCCCCC(C)(O)CCN1C(=O)N(C)C(=O)C1C/C=C\CCCCC(C)O` (centres unmarked) [Compound 3] yielded an ED50 of 3.6 µg/kg.
